The source of these data is US9598387B2 (Southern Research Institute, priority 2012, dated 2017).

One assay has as its target D2LR (Homo sapiens (Human), UniProt P14416). The experiment in a line: β-Arrestin Recruitment Assay, CHO-K1 DRD2L. The assay is classed as cell-based. Particulars: antagonist vs EC80 6 nM Pergolide, CHO-K1 DRD2L cells; read-out: D2 IC50. The method, then: Antagonist potency of the compounds against agonist induced recruitment of β-arrestin by D3R and D2LR was measured using DiscoverRx PathHunter eXpress kits. […] After incubation at 37° C. for 90 min, the DiscoveRx detection reagent was added, the plates were incubated at room temperature for 60 min and the luminescence was measured on a Synergy 4 plate reader (BioTek). The data were plotted and the agonist EC80 values were calculated using GraphPad Prism software. For antagonist activity, the cells were plated as described above and treated with multiple concentrations (starting from 500 nM, half log dilution, 10 dose points) of the test compounds in Plating Reagent with 0.1% DMSO.

The target in assay [1] is human D2 dopamine receptors (Homo sapiens (Human), UniProt P14416). The experiment in a line: Whole Cell Adenylyl Cyclase Assay, D2. The format is cell-based. The note with it: inhibition of forskolin (100 μM) stimulated cAMP, normalized to quinpirole; compound conc ≥10× Ki (per compound); mean ± S.E.M.
For a further assay, the target named is D3R (Homo sapiens (Human), UniProt P35462). Kind of assay: [35S]GTPγS Binding Assay, CHO D3 membranes. The format is biochemical. Particulars: antagonist vs dopamine; Ke = functional Ki; read-out: CHO-hD3 Ke.
Assay [2] concerns the target human D3 dopamine receptor (Homo sapiens (Human), UniProt P35462). Kind of assay: Whole Cell Adenylyl Cyclase Assay, D3. Particulars: inhibition of forskolin (100 μM) stimulated cAMP, normalized to quinpirole; compound conc ≥10× Ki (per compound); mean ± S.E.M. The assay is classed as cell-based.

Chain of human D3 dopamine receptor (P35462 whole entry): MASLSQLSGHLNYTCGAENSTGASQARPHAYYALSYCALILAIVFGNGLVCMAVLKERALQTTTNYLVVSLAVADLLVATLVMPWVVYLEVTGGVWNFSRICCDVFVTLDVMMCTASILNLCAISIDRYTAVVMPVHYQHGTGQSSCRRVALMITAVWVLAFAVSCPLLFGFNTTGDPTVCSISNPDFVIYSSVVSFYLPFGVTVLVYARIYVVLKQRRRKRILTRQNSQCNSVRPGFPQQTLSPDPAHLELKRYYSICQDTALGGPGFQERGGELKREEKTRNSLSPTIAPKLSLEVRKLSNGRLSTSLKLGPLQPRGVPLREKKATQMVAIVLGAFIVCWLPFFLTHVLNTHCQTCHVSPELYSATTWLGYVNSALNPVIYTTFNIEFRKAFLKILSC
Chain of D3R (P35462 whole entry): as above
Chain of human D2 dopamine receptors (P14416 whole entry): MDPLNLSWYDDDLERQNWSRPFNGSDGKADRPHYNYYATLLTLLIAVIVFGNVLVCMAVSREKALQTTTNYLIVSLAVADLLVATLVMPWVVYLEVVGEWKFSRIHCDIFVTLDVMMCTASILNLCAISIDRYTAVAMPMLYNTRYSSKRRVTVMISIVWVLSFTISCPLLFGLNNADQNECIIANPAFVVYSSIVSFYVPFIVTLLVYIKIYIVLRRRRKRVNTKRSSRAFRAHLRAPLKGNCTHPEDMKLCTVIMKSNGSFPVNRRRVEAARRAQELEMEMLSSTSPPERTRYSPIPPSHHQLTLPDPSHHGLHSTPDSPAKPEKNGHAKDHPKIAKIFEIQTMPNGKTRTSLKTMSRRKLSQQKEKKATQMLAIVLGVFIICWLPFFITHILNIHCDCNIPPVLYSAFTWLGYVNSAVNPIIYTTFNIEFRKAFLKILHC
Chain of D2LR (P14416 whole entry): as above
Protocol for D3R: Chinese hamster ovary (CHO) cells expressing human D2L and D3 receptors served as the source for membrane fractions which were washed and resuspended with assay buffer containing Mg^2+, Na^+, EGTA, and bovine serum albumin. […] After preincubation with test compounds, cell membranes and GDP for 15 minutes at 30° C. in a shaking water bath, [^35S]GTPγS was added and incubation proceeded for an additional 45 minutes. Cell membranes were harvested on Brandel GF/B filtermats with a 24-pin Brandel harvester (Biomedical Research & Development Laboratories, Inc., Gaithersburg, Md.). […] Antagonist activity was assessed by testing a fixed concentration of the test compound and varying concentration of the agonist, dopamine (0.001-100 μM for CHO D2 and 0.1 nM-10 uM for CHO D3).

Regarding `CC(C)(C)c1nc(N2CCN(CCCCNC(=O)c3cn4ccccc4n3)CC2)cc(C(F)(F)F)n1` [Compound 113, N-(4-(4-(2-(tert-Butyl)-6-(trifluoromethyl)pyrimidin-4-yl)piperazin-1-yl)butyl)imidazo[1,2-a]pyridine-2-carboxamide], the half-inhibitory concentration (IC50) on D2LR was determined as 261 ± 54 nM. Moreover, the “D2 Cyclase % Inhibition Normalized” value in assay [1] is listed as −1.9 ± 13.3%. Also, the Ki on D3R was 1.32 ± 0.35 nM. The “D3 Cyclase % Inhibition Normalized” value in assay [2] is 27.7 ± 7.0%.
